Source: PubChem BioAssay (NCI)
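1) Cells in 96-well plates. 2) Compound, 48 h, 5 concentrations. 3) Linear interpolation between surrounding doses. 4) Unreached endpoint = highest concentration. The concentration for 50% growth inhibition is given as GI50. The concentration for full growth arrest is given as TGI.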

Key:
Assay in all cases: growth of human tumour cells (NCI), 48 h
[1] = test system: BT-549 breast
[2] = test system: EKVX NSCLC
[3] = test system: HCT-116 colon
[4] = test system: MDA-MB-231 breast
[5] = test system: NCI-H23 lung
[6] = test system: OVCAR-8 ovarian
[7] = test system: SF-539 CNS
[8] = test system: SK-MEL-28 melanoma
[9] = test system: SW-620 colon
[10] = test system: U251 CNS
[11] = test system: UACC-257 melanoma

Row | Structure (SMILES) | TGI [1] [µM] | TGI [2] [µM] | TGI [3] [µM] | TGI [4] [µM] | TGI [5] [µM] | TGI [6] [µM] | TGI [7] [µM] | TGI [8] [µM] | TGI [9] [µM] | TGI [10] [µM] | TGI [11] [µM] | GI50 [1] [µM] | GI50 [2] [µM] | GI50 [4] [µM] | GI50 [6] [µM] | GI50 [7] [µM] | GI50 [8] [µM] | GI50 [11] [µM]
1 | CS(C)(=O)=N/C=C\C(=O)C(Cl)(Cl)Cl | > 100 | > 100 | > 100 | > 100 | > 100 | > 100 | > 100 | > 100 | > 100 | > 100 | > 100 | – | – | – | – | – | – | –
2 | C=C1CC(OC(C)=O)/C=C(/C)CCC(C(C)(C)O)CC1O (configuration not stated) | > 100 | > 100 | > 100 | > 100 | > 100 | > 100 | > 100 | > 100 | > 100 | > 100 | > 100 | – | – | – | – | – | – | –
3 | CCN(CC)CCN1C(=O)c2cccc3c(-c4ccc5c(c4)ncn5C4CCCCC4)ccc(c23)C1=O | 2.3 | 3.18 | – | 3.19 | – | 4.62 | 2.75 | 3.1 | – | – | 3.74 | 0.922 | 1.32 | 1.63 | 1.75 | 1.37 | 1.63 | 2.23
4 | C1CNCCN2CCCNCCN(C1)CC2 | > 100 | > 100 | > 100 | > 100 | > 100 | > 100 | > 100 | > 100 | > 100 | > 100 | > 100 | – | – | – | – | – | – | –
5 | CC(C)OP(=O)(OC(C)C)C(C(F)(F)F)C(F)(F)F | > 100 | > 100 | > 100 | – | > 100 | > 100 | > 100 | > 100 | > 100 | > 100 | > 100 | – | – | – | – | – | – | –
6 | Cc1csc2c(P(=O)(OC(C)C)OC(C)C)c(-c3ccccc3)cn12 | 36 | 32.5 | 27.4 | 41.1 | 37.9 | 33 | 32.9 | 32.9 | 35.8 | 29.5 | 27.8 | – | – | – | – | – | – | –
7 | O=C1CCc2c3c(c4c([nH]c5ccccc54)c2CC1)C(=O)NC3=O | 28.2 | > 100 | > 100 | > 100 | > 100 | 38.2 | > 100 | 12 | > 100 | > 100 | 19.5 | – | – | – | – | – | – | –
8 | CN(c1c(Cl)cccc1Cl)S(=O)(=O)c1ccccc1[N+](=O)[O-] | > 100 | > 100 | > 100 | – | > 100 | > 100 | > 100 | > 100 | > 100 | > 100 | > 100 | – | – | – | – | – | – | –
9 | CCN(CC)CCn1ncc2ccc3c(c(=O)c4cccnc4n3CCN(CC)CC)c21 | 5.11 | 6.83 | > 5.81 | 4.07 | 3.05 | 3.63 | 1.95 | 4.01 | > 6.66 | 6.82 | 3.95 | – | – | – | – | – | – | –
10 | Nc1[nH]c(=O)nc2sc3c(c12)CCCC3 | – | > 100 | > 100 | > 100 | > 100 | > 100 | > 100 | > 100 | > 100 | > 100 | > 100 | – | – | – | – | – | – | –
11 | C#CCNC(=O)CCC(N)C(=O)O (configuration not stated) | – | > 100 | > 100 | – | > 100 | > 100 | > 100 | > 100 | > 100 | > 100 | > 100 | – | – | – | – | – | – | –
12 | CN(C)c1nc(N(C)C)nc(N(C)CN(C)c2ccccc2)n1 | – | – | > 100 | – | > 100 | > 100 | > 100 | > 100 | – | > 100 | > 100 | – | – | – | – | – | – | –
13 | CCCCc1ccc(Nc2nc3c(ncn3C3OC(COC(C)=O)C(OC(C)=O)C3OC(C)=O)c(=O)[nH]2)cc1 (configuration not stated) | 32.2 | > 100 | 31.9 | 31.1 | 32.5 | 34.7 | 57.9 | – | 48.2 | 45.4 | 34.3 | – | – | – | – | – | – | –
14 | CN(C)C(=S)Nc1nnc(NC23CC4CC(CC(C4)C2)C3)s1 | – | 59.7 | 33 | – | – | > 100 | – | 31.3 | 38.3 | 25.3 | 32.5 | – | – | – | – | – | – | –
15 | O=C1C=C2S[C@H]3C[C@]2(C=C1Br)c1c(c(O)c2c4c1=NCCC=4C=N2)N3 | – | 3.19 | 0.342 | 1.16 | 2.57 | 1.56 | 3.03 | 2.76 | 0.237 | 3.17 | 0.557 | – | – | – | – | – | – | –
16 | O=C(N=Nc1ccc([N+](=O)[O-])cc1)NNc1ccc([N+](=O)[O-])cc1 | > 100 | – | 30.3 | 76.2 | 44.7 | 41.9 | – | 36.2 | 45.4 | 59.7 | 67.5 | – | – | – | – | – | – | –
17 | NNC(N)=Nc1cccc2ccccc12 | – | > 100 | > 100 | > 100 | > 100 | > 100 | > 100 | > 100 | > 100 | > 100 | > 100 | – | – | – | – | – | – | –
18 | C=C1C(=O)OC2/C=C(\C)CC/C=C(/C)CC(OC(=O)/C(=C/CO)CO)C12 (configuration not stated) | 30.9 | – | – | – | 39.1 | > 100 | 66.3 | 77.2 | 63.1 | 47 | 36.3 | – | – | – | – | – | – | –
19 | O=C(O)CC(NC(=O)C(F)(F)F)C(=O)NC1Cc2ccccc2OC1=O (configuration not stated) | > 100 | > 100 | – | – | > 100 | > 100 | > 100 | > 100 | > 100 | > 100 | > 100 | – | – | – | – | – | – | –
20 | COc1ccc2nc(-c3ccc(OC(=O)N(C)C)cc3)cn2c1 | – | > 100 | > 100 | > 100 | > 100 | > 100 | – | > 100 | > 100 | > 100 | > 100 | – | – | – | – | – | – | –
21 | CSCCC(NC(=O)C(Cc1ccccc1)NC(=O)CNC(=O)CNC(=O)C(N)Cc1ccc(O)cc1)C(=O)O (configuration not stated) | – | > 100 | > 100 | – | > 100 | > 100 | > 100 | > 100 | > 100 | > 100 | > 100 | – | – | – | – | – | – | –
